The source of these data is US10927118B2, “Inhibitors of influenza virus replication and uses thereof” (SUNSHINE LAKE PHARMA CO., LTD., priority 2017, dated 2021).

SMILES strings stand for the structures.

The nature of one data set: in vivo. As to conditions: SD, rat.
For another data set, the system named is virus H1N1 A/Weiss/43. Kind of data set: microbe, parasite or virus in culture. The data set is classed as cell-based. As to conditions: 120 h; inhibition of CPE of influenza virus A/Weiss/43(H1N1) in MDCK cells, 5 days, CCK-8.

Experimental for in vivo: Pharmacokinetic characteristics of the compounds of the invention in SD rats were evaluated. The compounds disclosed herein were administered in form of a saline solution containing 5% DMSO, 5% Kolliphor HS 15 and 90% Saline. For intravenous administration (iv), the animals were administered with a dose of 1 mg/kg, and blood samples (0.3 mL) were collected at the time points of 0.083, 0.25, 0.5, 1.0, 2.0, 5.0, 7.0 and 24 h after drug administration, then each blood sample was processed to separate plasma by centrifugation at 3000 rpm or 4000 rpm for 10 minutes. For oral administration (po), the animals were administered with a dose of 5 mg/kg, and blood samples (0.3 mL) were collected at the time points of 0.25, 0.5, 1.0, 2.0, 5.0, 7.0 and 24 h after drug administration, then each blood sample was processed to separate plasma by centrifugation at 3000 rpm or 4000 rpm for 10 minutes. Plasma samples were collected and stored at −20° C. or −70° C. until LC/MS/MS analysis.

In the data set “in vivo” (iv, 1 mg/kg), `O=C(O)C1C2CCC(CC2)C1Nc1cc(-c2ccco2)nc(-c2c[nH]c3ncncc23)n1` (racemic) [Example 2, (+/−)-trans-3-((6-(furan-2-yl)-2-(7H-pyrrolo[2,3-d]pyrimidin-5-yl)pyrimidin-4-yl)amino)bicyclo[2.2.2]octane-2-carboxylic acid] registered an AUC(0-inf) of 4020 ng·h/mL, an AUC(0-t) of 3190 ng·h/mL and a clearance of 10.7 mL/min/kg. In the data set “in vivo” (po, 5 mg/kg), this compound had an AUC(0-inf) of 12900 ng·h/mL and an AUC(0-t) of 12700 ng·h/mL. Also, in the data set with virus H1N1 A/Weiss/43, the EC50 came out at 5.19 nM.

In “in vivo” (iv, 1 mg/kg), `Cn1ccc2c(NC3C4CCC(CC4)C3C(=O)O)nc(-c3c[nH]c4ncncc34)nc21` (racemic) [Example 3, (+/−)-trans-3-((7-methyl-7H,7′H-[2,5′-bipyrrolo[2,3-d]pyrimidin]-4-yl)amino)bicyclo[2.2.2]octane-2-carboxylic acid] showed an AUC(0-inf) of 4320 ng·h/mL, an AUC(0-t) of 4280 ng·h/mL and a clearance of 9.8 mL/min/kg. In the data set “in vivo” (po, 5 mg/kg), this compound registered an AUC(0-inf) of 15700 ng·h/mL and an AUC(0-t) of 15600 ng·h/mL. The EC50 in the data set with virus H1N1 A/Weiss/43 came to 9.41 nM.

In the data set on virus H1N1 A/Weiss/43, `CC(C)n1ccc2c(NC3C4CCC(CC4)C3C(=O)O)nc(-c3c[nH]c4ncncc34)nc21` (racemic) [Example 4, (+/−)-trans-3-((7-isopropyl-7H,7′H-[2,5′-bipyrrolo[2,3-d]pyrimidin]-4-yl)amino) bicyclo[2.2.2]octane-2-carboxylic acid] came in with an EC50 of 6.56 nM.

Regarding `O=C(O)C1C2CCC(CC2)C1Nc1nc(-c2c[nH]c3ncncc23)nc(-c2ccco2)c1F` (racemic) [Example 7, (+/−)-trans-3-((5-fluoro-6-(furan-2-yl)-2-(7H-pyrrolo[2,3-d]pyrimidin-5-yl)pyrimidin-4-yl)amino)bicyclo[2.2.2]octane-2-carboxylic acid], a half-maximal effect in the data set on virus H1N1 A/Weiss/43 (EC50) was put at 4.02 nM.

Turning to `O=C(O)C1C2CCC(CC2)C1Nc1cc(-c2ccoc2)nc(-c2c[nH]c3ncncc23)n1` (racemic) [Example 9, (+/−)-trans-3-((6-(furan-3-yl)-2-(7H-pyrrolo[2,3-d]pyrimidin-5-yl)pyrimidin-4-yl)amino)bicyclo[2.2.2]octane-2-carboxylic acid], the midpoint of the response in the data set on virus H1N1 A/Weiss/43, the EC50, lay at 9.57 nM.

The compound `O=C(O)C1C2CCC(CC2)C1Nc1cc(-c2cc3ccccc3o2)nc(-c2c[nH]c3ncncc23)n1` (racemic) [Example 11, (+/−)-trans-3-((6-(benzofuran-2-yl)-2-(7H-pyrrolo[2,3-d]pyrimidin-5-yl)pyrimidin-4-yl)amino)bicyclo[2.2.2]octane-2-carboxylic acid] yielded an EC50 in the data set on virus H1N1 A/Weiss/43 of 14.4 nM.

Turning to `O=C(O)C1C2CCC(CC2)C1Nc1cc(C#Cc2ccccc2)nc(-c2c[nH]c3ncncc23)n1` (racemic) [Example 12, (+/−)-trans-3-((6-(phenylethynyl)-2-(7H-pyrrolo[2,3-d]pyrimidin-5-yl)pyrimidin-4-yl)amino)bicyclo[2.2.2]octane-2-carboxylic acid], in the data set with virus H1N1 A/Weiss/43, the EC50 worked out at 7.24 nM.

The compound `O=C(O)C1C2CCC(CC2)C1Nc1nc(-c2c[nH]c3ncncc23)nc(-c2ccccc2)c1F` (racemic) [Example 13, (+/−)-trans-3-((5-fluoro-6-phenyl-2-(7H-pyrrolo[2,3-d]pyrimidin-5-yl)pyrimidin-4-yl)amino)bicyclo[2.2.2]octane-2-carboxylic acid] registered an EC50 with virus H1N1 A/Weiss/43 of 8.68 nM.

As to `Cn1cc(-c2cc(NC3C4CCC(CC4)C3C(=O)O)nc(-c3c[nH]c4ncncc34)n2)cn1` (racemic) [Example 14, (+/−)-trans-3-((6-(1-methyl-1H-pyrazol-4-yl)-2-(7H-pyrrolo[2,3-d]pyrimidin-5-yl)pyrimidin-4-yl)amino)bicyclo[2.2.2]octane-2-carboxylic acid], the EC50 in the data set on virus H1N1 A/Weiss/43 was 6.32 nM.

Regarding `O=C(O)C1C2CCC(CC2)C1Nc1nc(-c2c[nH]c3ncncc23)nc2ccccc12` (racemic) [Example 18, (+/−)-trans-3-((2-(7H-pyrrolo[2,3-d]pyrimidin-5-yl)quinazolin-4-yl)amino) bicyclo[2.2.2]octane-2-carboxylic acid], in the data set with virus H1N1 A/Weiss/43, the EC50 was 17.5 nM.

As for `O=C(O)C1C2CCC(CC2)C1Nc1nc(-c2c[nH]c3ncncc23)nc2sccc12` (racemic) [Example 20, (+/−)-trans-3-((2-(7H-pyrrolo[2,3-d]pyrimidin-5-yl)thieno[2,3-d]pyrimidin-4-yl)amino)bicyclo[2.2.2]octane-2-carboxylic acid], in the data set with virus H1N1 A/Weiss/43, a half-maximal response (EC50) required 19.2 nM.

In the data set on virus H1N1 A/Weiss/43, `O=C(O)C1C2CCC(CC2)C1Nc1nc(-c2c[nH]c3ncncc23)ncc1F` (stereo not shown) [Control compound A, reference compound] had an EC50 greater than 100000 nM.

A word on the AUC(0-inf): it is the area under the concentration-time curve extrapolated to infinity. One may read the AUC(0-t) as exposure summed from dosing to a finite time, without extrapolation to infinity. Lower therefore signals low exposure. Usually clearance stands for a measure of how efficiently the substance is removed, as volume per time. A low value points to inefficient removal. By EC50 is commonly meant the concentration needed to bring the measured effect to its halfway point.
